Test results published in US20080153792A1, “Drug Identification and Treatment Method” (priority 2006, published 2008).

Columns and labels:
[1] = system: human peripheral blood mononuclear cells (PBMC); assay: human mixed lymphocyte reaction (MLR); type: cell-based; settings: 6 days
Experimental: Human mixed lymphocyte reaction (MLR). The capacity of 3β,16α-dihydroxy-17-oxoandrostane, 3β,17β-dihydroxy-16-oxoandrostane, 17α-ethynylandrost-5-ene-3β,7β,17β-triol, and 17β-aminoandrost-5-ene-3β-ol to affect antigen specific stimulation in which human T lymphocytes respond to a specific foreign antigen (major histocompatibility complex).
Blood samples were obtained from 3 (2 males, […]) fasting, healthy human volunteers of 23-31 years old. […] The subjects were bled between […] to limit possible fluctuations in the circulating levels of hormones or cytokines that could have influenced the in vitro responses of their lymphocytes. Peripheral blood mononuclear cells (PBMC) were isolated by centrifugation on Ficoll-Hypaque (density 1.077, Biochrom AG, Berlin, Germany) gradients and resuspended in culture medium (RPMI 1640 supplemented with 2 mM L-glutamine, penicillin (100 U/mL) and streptomycin ([…]) (Invitrogen s.rl., Milan, Italy). Autologous (responder) inactivated plasma was used at 10%. Five hundred thousand responder PBMC (PBMCr) and 500,000 allogeneic irradiated (30 Gy) stimulator PBMC (PBMCs) were mixed at a ratio of 1:1 in 200 μL medium and cultured for 6 days in flat bottom 96 well plates (Nunc, Roskilde, Denmark) at a concentration of 300 nM or 30 nM for each of the 4 compounds. The compounds were dissolved in ethanol and then diluted to the desired concentration with culture medium leading to a final solution containing 0.01% of ethanol. This vehicle was used as control. Controls also included PBMCr and PBMCs cultured separately. During the last 8 hours of the culture period the PBMC were pulsed with 1 μCi/well [^3H] thymidine (Amersham, Milan, Italy). The cells were then harvested and radioactivity incorporation measured with a beta cell counter. The mean cpm of quadruplicate wells was calculated. Proliferation of T cells was expressed as a stimulation index: SI=cpm (PMBCs xPBMCr)/cpm (PBMCr)+cpm (PBMCs). Statistical analysis was performed using the Student's t test. The cpm obtained from quadruplicate of each test compound were compared to proliferative responses obtained in control PBMCr and PBMCs cultured in the presence of the vehicle. Differences were considered significant at p<0.05.

[2] = system: CD1 male mice, carrageenan-λ induced pleurisy; assay: carrageenan-λ induced lung (pleural cavity) inflammation in mice; type: in vivo, mouse; settings: for number of neutrophils relative to untreated carrageenan-λ control (100%): 4 h after carrageenan
female SJL/J mice, EAE = assay: experimental allergic encephalomyelitis (EAE), PLP 139-151, Example 6; type: in vivo, mouse; settings: 5 mg/kg daily by oral gavage, through day 26
Description: Treatment of autoimmune neurodegeneration. Three compounds, 17β-aminoandrost-5-ene-3β-ol, 17β-dimethylaminoandrost-5-ene-3β-ol and 17β-methylaminoandrost-5-ene-3β-ol were characterized for their capacity to ameliorate experimental allergic encephalomyelitis (EAE) in mice. This demyelinating condition is extensively used as a model for multiple sclerosis in humans and for testing of new therapies for treating multiple sclerosis, e.g., B. F. Bebo Jr. et al., J. Neurosci. Res. 52:420-426 1998; R. R. Voskuhl et al., Neuroscientist, 7:258-270 2001; H. Offner et al., J. Neuroimmunol., 130:128-139 2002.
In this protocol, the compounds were administered to female SJL/J mice by oral gavage at the onset of disease symptoms. An antigen was used to initiate the EAE condition in the mice. […] Immunization with this peptide antigen initiates an autoimmune Th1 mediated demyelinating disease of the central nervous system. The antigen was prepared by solid phase synthesis and purified by high-performance liquid chromatography. […] The immunization protocol was subcutaneous injection over four sites on the hind flank on day 0. After immunization. the mice were assessed daily for clinical signs of EAE using the following scale: 0=no clinical signs or symptoms; 1=limp tail; 2=mild hind limb weakness and limp tail; 3=moderate hind limb weakness and limp tail or mild ataxia; 4=severe hind limb weakness and mild forearm weakness with moderate ataxia; 5=paraplegia with no more than moderate forelimb weakness; 6=paraplegia with severe forelimb weakness or severe ataxia or moribund condition.
Mice in the vehicle control group began to show observable symptoms of EAE at about 10-11 days after immunization with the PLP antigen, which is typical for the EAE disease model. The animals were dosed daily with 17β-aminoandrost-5-ene-3β-ol, 17β-dimethylaminoandrost-5-ene-3β-ol or 17β-methylaminoandrost-5-ene-3β-ol by oral gavage beginning at day 1, which was 1 day after immunization.

Balb/c mice, ear burn = assay: thermal injury model using mouse ear tissue; type: in vivo; settings: injection in propylene glycol after burn
Experimental: A thermal injury model using mouse ear tissue was used to characterize compounds for their capacity to treat inflammation associated with thermal trauma. […] Groups of Balb/c mice, approximately nine weeks old were given an identifying mark and then divided into control and treated subgroups. The thickness of the ear to be immersed in hot water was recorded, and then the entire ear of the anesthetized mouse was dipped into 52° C. water for 24 seconds. Each mouse was returned to its cage after an injection of either the propylene glycol vehicle (control) or 100 mg of compound in propylene glycol. Ear swelling changes were monitored on individual mice at pre-burn, and at various times after thermal injury. Ear swelling changes were monitored on individual mice at pre-injury and at 1, 3, 6, 9, 12, 18, 24 and 48 hours after thermal injury. Animals were treated with 100 mg of dehydroepiandrosterone (DHEA) dissolved in propylene glycol.

[3] = metabolic stability in liver microsomes: mouse; settings: 10 min
Experimental: (§1) The protocol was performed as follows. […] (2) Set up samples as follows. […] (4) The internal standard/acetonitrile solution.

NF-κB = assay: NF-κB-bla THP-1 β-lactamase reporter assay; type: cell-based, human; settings: Homo sapiens, THP-1, read-out: IC50 for inhibition of NF-κB activation, after LPS stimulation; 50% of the maximum inhibition the compound can induce; averages of 2-4 assays
MG-63 cells = assay: reversal of glucocorticoid effects in MG-63 osteosarcoma cells; type: cell-based, human; settings: 10 nM compound
[4] = metabolic stability in liver microsomes: human
Experimental: as §1

[5] = metabolic stability in liver microsomes, species not stated; type: in vitro ADME; settings: compared with androst-5-ene-3β,17β-diol reference compound
Experimental: as §1

[6] = system: NF-κB in spleen cells of ICR mice; assay: activated NF-κB in spleen cell nuclei after LPS, Example 8; type: in vivo, mouse; settings: about 40 mg/kg i.p. 24 h before and 1 h after LPS; spleens 1.5 hours after LPS
Experimental: The capacity of selected compounds to treat LPS induced shock/inflammation in mice was examined by a protocol similar to the protocol described above. Five groups of three ICR mice weighing about 30 g were each treated by intraperitoneal injection with 120 μL vehicle (30% sulfobutylether-cyclodextrin in water), androst-5-ene-3α,7β,16α,17β-tetrol in vehicle, androst-5-ene-3β,4β,16α,17β-tetrol in vehicle or 4β-acetoxyandrost-5-ene-3β,16α,17β-triol in vehicle. All drug and vehicle formulations were solutions, not suspensions. The sulfobutylether-cyclodextrin was obtained commercially (Captisol™, www.cyclexinc.com). There were two vehicle control groups one group received vehicle alone and the other received vehicle plus LPS. […] Drug was administered at about 40 mg/kg (1.2 mg drug/animal for each administration of the drugs). Spleens were harvested from the animals at 1.5 hours after injection of LPS and spleen cells were lysed and assayed for activated NF-κB by isolating nuclei from spleen cells and measuring NF-κB from the lysed nuclei. […] The level of activated NF-κB in spleen cells from the animals that were treated with vehicle and no LPS, was essentially the same as the activated NF-κB in spleen cells from drug treated animals.

[7] = system: BALB/c mice, OVA sensitized and challenged; assay: ovalbumin (OVA) sensitized mouse model of asthma; type: in vivo; settings: for IL-13: s.c. once daily, dexamethasone 5 mg/kg, compound 1 mg/mouse
Experimental: BALB/c mice were sensitized by intraperitoneal injection with OVA (in alum adjuvant) on days 1, and 12. Airways were challenged with OVA on days 28 and 30 by delivery of OVA to the lung, or with saline. […] The remaining animals were divided into 6 groups (6 mice per group). Groups of the mice were treated once daily by subcutaneous injection as follows. Group 1 vehicle control (0.1% carboxymethyl cellulose, 0.9% saline, 2% tween 80, 0.05% phenol). Group 2 dexamethazone (5 mg/kg). Group 3 3α,16α,17α-trihydroxyandrostane (1 mg/mouse). Three animals in groups 1-3 were sacrificed on day 35 at 1 hr after final treatment and the remaining 3 animals in groups 1-3 were sacrificed on day 38.

In the case of C[C@]12CC[C@H]3[C@@H](CC=C4C[C@@H](O)CC[C@@]43C)[C@@H]1CC[C@@H]2N [17β-aminoandrost-5-ene-3β-ol], the “immune suppression in the MLR” value ([1]; 300 nM, p<0.05) is reported as “moderately immune suppressive”, the “anti-inflammation activity versus vehicle controls” value ([2]; 40 mg/kg by oral gavage, about 0.5 mg/mouse) is reported as “statistically significant anti-inflammation activity” and the “activity on clinical severity of EAE symptoms” value (“activity on clinical severity” below) (female SJL/J mice, EAE) is reported as “active”.
With C[C@]12CC[C@H](O)CC1=CC[C@@H]1[C@@H]2CC[C@]2(C)C(=O)[C@H](Cl)C[C@@H]12 [16α-chlorodehydroepiandrosterone] the “protection against progressive ischemia after thermal injury to the ear” value (“protection against progressive ischemia” for short) (Balb/c mice, ear burn) was “only slightly protective”.
In the case of C[C@]12CC[C@H]3[C@@H]([C@H](O)C=C4C[C@@H](O)CC[C@@]43C)[C@@H]1C[C@@H](O)[C@@H]2O [androst-5-ene-3β,7α,16α,17β-tetrol], the “parent remaining mouse microsomes” value [3] is reported as 100% (10 min), the IC50 (NF-κB) is reported as > 10 µM and the “osteoprotegerin levels in the presence of 30 nM dexamethasone” value (MG-63 cells) is reported as “near normal osteoprotegerin levels”. For the same compound, the “parent remaining human microsomes” value ([4]; 10 min) was 100% (10 min).
In the case of C[C@]12CC[C@H]3[C@@H](CC=C4C[C@@H](O)CC[C@@]43C)[C@@H]1CC[C@@H]2O [androst-5-ene-3β,17β-diol], the “parent remaining mouse microsomes” value [3] is reported as 25% (10 min), the “protection against progressive ischemia” value (Balb/c mice, ear burn) is reported as “protected treated animals against much of the ischemic consequences” and the “parent remaining human microsomes” value ([4]; 10 min) is reported as 39% (10 min). The “parent remaining human microsomes” value ([4]; 90 min) was 30% (90 min).
With C[C@]12CC[C@H]3[C@@H](CC=C4C[C@@H](O)CC[C@@]43C)[C@@H]1C[C@@H](O)[C@@H]2O [androst-5-ene-3β,16α,17β-triol] the “metabolism by microsomes” value [5] was “metabolized by microsomes at a rate similar to the androst-5-ene-3β,17β-diol reference compound”.
With C[C@]12CC[C@H](O)CC1=CC[C@@H]1[C@@H]2CC[C@]2(C)C(=O)[C@H](O)C[C@@H]12 [16α-hydroxydehydroepiandrosterone] the “protection against progressive ischemia” value (Balb/c mice, ear burn) was “less protective”.
In the case of C[C@]12CC[C@H]3[C@@H](CCC4C[C@@H](O)CC[C@@]43C)[C@@H]1CC(=O)[C@@H]2O (stereo partly drawn) [3β,17β-dihydroxy-16-oxoandrostane], the “immune suppression in the MLR” value ([1]; either 300 nM or 30 nM, p>0.05) is reported as “not appreciably immune suppressive”.
With C[C@]12CC[C@H]3[C@@H](CC=C4[C@@H](O)[C@@H](O)CC[C@@]43C)[C@@H]1C[C@@H](O)[C@@H]2O [3β,4β,16α,17β-tetrahydroxyandrost-5-ene] the “decrease of NF-κB activation compared to LPS+vehicle control group” value [6] was “about 50%”.
For CN[C@H]1CC[C@H]2[C@@H]3CC=C4C[C@@H](O)CC[C@]4(C)[C@H]3CC[C@]12C [17β-methylaminoandrost-5-ene-3β-ol], the “activity on clinical severity” value (female SJL/J mice, EAE) was “active”.
In the case of CN(C)[C@H]1CC[C@H]2[C@@H]3CC=C4C[C@@H](O)CC[C@]4(C)[C@H]3CC[C@]12C [17β-dimethylaminoandrost-5-ene-3β-ol], the “activity on clinical severity” value (female SJL/J mice, EAE) is reported as “active”.
With C[C@]12CC[C@H]3[C@@H](CCC4C[C@H](O)CC[C@@]43C)[C@@H]1C[C@@H](O)[C@H]2O (stereo partly drawn) [3α,16α,17α-trihydroxyandrostane] the “number of neutrophils relative to untreated carrageenan-λ control (100%)” value ([2]; 0.001 mg s.c. 24 h and 1 h before carrageenan-λ) was 103%, the “number of neutrophils relative to untreated carrageenan-λ control (100%)” value ([2]; 0.01 mg s.c. 24 h and 1 h before carrageenan-λ) was 45% and the “number of neutrophils in the pleura” value ([2]; 0.1 mg and 0.01 mg doses s.c.) was “significant reduction”. For the same compound, the “number of neutrophils relative to untreated carrageenan-λ control (100%)” value ([2]; 0.1 mg s.c. 24 h and 1 h before carrageenan-λ) was 30%, the “metabolism by microsomes” value [5] was “metabolized by microsomes at a rate similar to the androst-5-ene-3β,17β-diol reference compound” and the IL-13 ([7]; day 35) was 195 pg/mL. The “IL-5 in lung tissue” value ([7]; day 38) was 90 pg/mL and the IL-13 ([7]; day 38) was 210 pg/mL.
In the case of CC(=O)O[C@@H]1C2=CC[C@H]3[C@@H]4C[C@@H](O)[C@H](O)[C@@]4(C)CC[C@@H]3[C@@]2(C)CC[C@@H]1O [4β-acetoxy-3β,16α,17β-trihydroxyandrost-5-ene], the “decrease of NF-κB activation compared to LPS+vehicle control group” value [6] is reported as “about 50%”.
In the case of C[C@]12CC[C@H](O)CC1=CC[C@@H]1[C@@H]2CC[C@]2(C)C(=O)[C@H](Br)C[C@@H]12 [16α-bromodehydroepiandrosterone], the “protection against progressive ischemia” value (Balb/c mice, ear burn) is reported as “protected treated animals against much of the ischemic consequences”.
